According to article PMC6364133, “Selectivity of Dietary Phenolics for Inhibition of Human Monoamine Oxidases A and B” (BioMed Research International, 2019):
Like-named read-outs stand apart in the source and are kept apart here. Values belong to the molecule of their own block, whether it stands above or below them.

Columns and labels:
MAO-A [1] = molecular target: T1, MAO-A (Homo sapiens, UniProt P21397); experiment: Inhibition mechanism studies (competition, time dependence) with MAO-A; assay type: biochemical; settings: 1 μM, preincubation 0-60 min, then kynuramine 20 μM
T1 construct: purchased BD Biosciences (San Jose, CA) or Corning Discovery Labware (Woburn, MA)
T1 sequence (P21397 1-527): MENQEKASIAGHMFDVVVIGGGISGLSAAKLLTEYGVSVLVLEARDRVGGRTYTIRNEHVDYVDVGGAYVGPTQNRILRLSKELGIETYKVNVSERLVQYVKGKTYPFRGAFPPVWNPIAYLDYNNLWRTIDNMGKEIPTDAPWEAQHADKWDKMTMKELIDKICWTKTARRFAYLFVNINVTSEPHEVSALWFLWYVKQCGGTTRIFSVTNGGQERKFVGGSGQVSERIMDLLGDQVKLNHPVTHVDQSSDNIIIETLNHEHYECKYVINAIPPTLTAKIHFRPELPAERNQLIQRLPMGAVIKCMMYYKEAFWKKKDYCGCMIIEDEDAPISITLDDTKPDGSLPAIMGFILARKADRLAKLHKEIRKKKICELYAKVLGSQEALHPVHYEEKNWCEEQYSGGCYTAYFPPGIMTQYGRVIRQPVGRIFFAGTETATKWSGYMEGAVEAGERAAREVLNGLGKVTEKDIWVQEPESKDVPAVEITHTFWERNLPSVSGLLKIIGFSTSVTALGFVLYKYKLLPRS

[2] = design: method as in earlier work; settings: cited from earlier work
MAO-A [3] = molecular target: T1, MAO-A; experiment: MAO-A inhibition, kynuramine to 4-hydroxyquinoline, HPLC-fluorescence; assay type: biochemical; settings: for MAO-A inhibition (Figure 6): 15 µM test compound (clorgyline 1 µM, selegiline 0.5 µM); for MAO-A inhibition (Figure 6) / MAO-A Hill coefficient / IC50: kynuramine 10 µM, 15 min; for inhibition of MAO-A activity in screening: highest expected luminal concentration: curcumin 140, guaiacol 435, isoeugenol 110, pterostilbene 270, resveratrol 94, zingerone 51 µM, p < 0.05 vs control; for MAO-A Hill coefficient / IC50: MAO-A 0.01 mg/mL; for Selectivity Index: ratio of MAO-B IC50/MAO-A IC50
MAO-B [4] = molecular target: T2, MAO-B (Homo sapiens, UniProt P27338); experiment: MAO-B inhibition, kynuramine to 4-hydroxyquinoline, HPLC-fluorescence; assay type: biochemical
T2 construct: purchased BD Biosciences (San Jose, CA) or Corning Discovery Labware (Woburn, MA)
T2 sequence (P27338 1-520): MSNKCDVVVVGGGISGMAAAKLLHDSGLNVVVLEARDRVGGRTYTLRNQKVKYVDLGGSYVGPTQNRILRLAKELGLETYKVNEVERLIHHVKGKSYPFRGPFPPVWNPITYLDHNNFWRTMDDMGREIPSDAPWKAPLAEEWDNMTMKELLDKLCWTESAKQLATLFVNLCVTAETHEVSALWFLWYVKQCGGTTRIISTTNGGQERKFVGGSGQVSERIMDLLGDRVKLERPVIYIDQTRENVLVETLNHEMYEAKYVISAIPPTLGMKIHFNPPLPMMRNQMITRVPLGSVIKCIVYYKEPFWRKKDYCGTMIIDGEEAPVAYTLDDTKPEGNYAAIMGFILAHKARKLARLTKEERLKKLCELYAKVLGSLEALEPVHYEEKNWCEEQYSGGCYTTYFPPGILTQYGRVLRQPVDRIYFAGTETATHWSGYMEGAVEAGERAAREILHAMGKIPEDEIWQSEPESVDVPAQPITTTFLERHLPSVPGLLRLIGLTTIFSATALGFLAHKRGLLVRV

MAO-A in mouse brain = settings: after p.o. administration; cited from earlier work
MAO-B in mouse brain = settings: after p.o. administration; cited from earlier work
MAO-B in rat brain = molecular target: MAO-B in rat brain; design: method as in PMID 15120460; settings: cited from earlier work
MAO-A [5] = settings: cited from earlier work
MAO-A [6] = molecular target: T1, MAO-A; experiment: Kynuramine oxidative deamination kinetics (saturation, optimization) with MAO-A; assay type: biochemical; settings: mean ± SEM
Experimental: (§1) The optimized incubation time and human recombinant MAO concentration were selected in the linear range from the time-dependent and MAO concentration-dependent studies (Supplemental Data). Briefly, samples were prepared in potassium phosphate buffer (100 mM, pH 7.4) with a final concentration of MAO in the reaction solution of 0.01 mg/mL, incubated at 37°C for 15 min. Saturation of kynuramine metabolism with MAO-A/B was carried out at concentrations of 2, 5, 10, 25, 50, 100, 250, 500 μM. The enzymatic reactions (200μL) were stopped by 2 N NaOH (75 μL) followed with 70% perchloric acid (25 μL). The samples were vortexed and centrifuged for 5 min at 10,000×g. The supernatant was analyzed by HPLC as described above.
(§2) GraphPad Prism 5 was applied to fit a Michaelis-Menten model to the data to obtain the Km values in the saturation experiments. In the screening experiments, significant differences between control and treated group were determined by a one-way ANOVA followed by Dunnett's posttest (p < 0.05). […] The maximum single doses are from published sources. The relevant GI concentration is the lesser of either solubility or the concentration after a single dose.
(§3) Kynuramine (2 to 500 μM) was incubated in 200 μL potassium phosphate buffer (100 mM, pH 7.4) for 15 min with MAO-A or MAO-B (0.01 mg/mL). Michaelis-Menten model was used to fit the data by GraphPad Prism 5. The experiments were conducted 3 times in triplicate. Single representative experiments are shown. […]
(§4) Table S7. Sample Processing Stability for 4-Hydroxyquinoline […]
(§5) B. Optimization of Enzyme Incubations […]
(§6) Kynuramine (10 µM) was incubated with MAO-A (0.01 mg/mL) in 200 µL potassium phosphate buffer (100 mM, pH 7.4) for 10, 20, 30, 40, and 60 min. The formation of 4-hydroxyquinoline was analyzed after the enzymatic reaction. […]

MAO-B [7] = molecular target: T2, MAO-B; experiment: Kynuramine oxidative deamination kinetics (saturation, optimization) with MAO-B; assay type: biochemical; settings: mean ± SEM
Experimental: as §1, §2, §3, §4, §5, §6

MAO-B [8] = settings: cited from earlier work
human MAO-A = test system: human MAO-A; design: method as in PMID 15095350; settings: cited from earlier work
human MAO-B = test system: human MAO-B; design: method as in PMID 15095350; settings: cited from earlier work
MAO-A in rat brain = settings: cited from earlier work
[9] = 15 µM test compound (clorgyline 1 µM, selegiline 0.5 µM), kynuramine 10 µM, 15 min
[10] = highest expected luminal concentration: curcumin 140, guaiacol 435, isoeugenol 110, pterostilbene 270, resveratrol 94, zingerone 51 µM, p < 0.05 vs control
[11] = kynuramine 10 µM, MAO-B 0.01 mg/mL, 15 min

Molecule: N[C@@H]1C[C@H]1c1ccccc1 (racemic) [tranylcypromine]
plateau inhibition, MAO-A (MAO-A [1]): 48%

Molecule: Oc1ccnc2ccccc12 [4-hydroxyquinoline]
estimated most acidic pKa [2]: 4.3
estimated most basic pKa [2]: 11.1

MAO-A inhibition (Figure 6) (MAO-A [3]): inhibited both enzymes
MAO-B inhibition (Figure 6) (MAO-B [4]; [9]): inhibited both enzymes
Molecule: O=c1cc(-c2ccccc2)oc2cc(O)cc(O)c12 [chrysin]

Molecule: COc1cc(/C=C/C(=O)CC(=O)/C=C/c2ccc(O)c(OC)c2)ccc1O [curcumin]
inhibition of MAO-A activity in screening (MAO-A [3]): significantly inhibited
MAO-A Hill coefficient (MAO-A [3]): 2.0 ± 0.4
inhibition of MAO-B activity in screening (MAO-B [4]; [10]): significantly inhibited
MAO-B Hill coefficient (MAO-B [4]; [11]): 1.7 ± 0.1
MAO-A inhibition in mouse brain (MAO-A in mouse brain): inhibits
MAO-B inhibition in mouse brain (MAO-B in mouse brain): inhibits

Molecule: Cc1cc(O)c2c(c1)C(=O)c1cc(O)cc(O)c1C2=O [emodin]
Ki (MAO-B in rat brain): 15.1 µM
mode of inhibition, MAO-B (MAO-B in rat brain): mixed mode

inhibition of MAO-A activity in screening (MAO-A [3]): significantly inhibited
IC50 (MAO-A [3]): 131 ± 6 µM
Selectivity Index (MAO-A [3]): 2.46
inhibition of MAO-B activity in screening (MAO-B [4]; [10]): significantly inhibited
IC50 (MAO-B [4]; [11]): 322 ± 27 µM
Molecule: COc1ccccc1O [guaiacol]

Molecule: O=c1c(O)c(-c2ccc(O)cc2)oc2cc(O)cc(O)c12 [kaempferol]
MAO-A inhibition (MAO-A [5]): selective MAO-A inhibitor

rate of 4-hydroxyquinoline formation, time-dependent study, MAO-A (MAO-A [6]; kynuramine 10 µM, MAO-A 0.01 mg/mL, 10-60 min): 3.28 ± 0.09 nmol/mg/min
rate of 4-hydroxyquinoline formation, MAO concentration-dependent study, MAO-A (MAO-A [6]; kynuramine 10 µM, MAO-A 0.003-0.03 mg/mL, 15 min): 3.06 ± 0.03 nmol/mg/min
Vmax, MAO-A (MAO-A [6]; kynuramine 2-500 μM, 15 min): 10.2 ± 0.2 nmol/min/mg
rate of 4-hydroxyquinoline formation, time-dependent study, MAO-B (MAO-B [7]; kynuramine 10 µM, MAO-B 0.01 mg/mL, 10-60 min): 2.70 ± 0.07 nmol/mg/min
rate of 4-hydroxyquinoline formation, MAO concentration-dependent study, MAO-B (MAO-B [7]; kynuramine 10 µM, MAO-B 0.003-0.03 mg/mL, 15 min): 3.66 ± 0.08 nmol/mg/min
Vmax, MAO-B (MAO-B [7]; kynuramine 2-500 μM, 15 min): 7.35 ± 0.69 nmol/min/mg
Molecule: NCCC(=O)c1ccccc1N [kynuramine]
Km (MAO-A [5]): 44.1 µM
Km (MAO-B [8]): 90 µM
Km (human MAO-A): 42 µM
Km (human MAO-B): 26 µM
estimated most basic pKa [2]: 8.4

Molecule: COc1ccc(C(C)=O)c(O)c1 [paeonol]
Ki (MAO-A in rat brain): 51.1 µM
mode of inhibition, MAO-A (MAO-A in rat brain): non-competitive
Ki (MAO-B in rat brain): 38.2 µM
mode of inhibition, MAO-B (MAO-B in rat brain): competitive

Molecule: O=C(/C=C/C=C/c1ccc2c(c1)OCO2)N1CCCCC1 [piperine]
Ki (MAO-A in rat brain): 35.8 µM
mode of inhibition, MAO-A (MAO-A in rat brain): mixed
Ki (MAO-B in rat brain): 79.9 µM
mode of inhibition, MAO-B (MAO-B in rat brain): competitive

MAO-B inhibition (Figure 6) (MAO-B [4]; [9]): failed to inhibit
Molecule: COc1cc(/C=C/c2ccc(O[C@@H]3O[C@H](CO)[C@@H](O)[C@H](O)[C@H]3O)cc2)cc(OC)c1 [pterostilbene 4'-glucoside]

Molecule: O=c1c(O)c(-c2ccc(O)c(O)c2)oc2cc(O)cc(O)c12 [quercetin]
MAO-A inhibition (MAO-A [5]): inhibitor
MAO-B inhibition (MAO-B [8]): inhibitor

Molecule: OC[C@H]1O[C@@H](Oc2cc(O)cc(/C=C/c3ccc(O)cc3)c2)[C@H](O)[C@@H](O)[C@@H]1O [resveratrol 3-glucoside]
MAO-B inhibition (Figure 6) (MAO-B [4]): failed to inhibit

MAO-A inhibition (Figure 6) (MAO-A [3]): inhibited MAO-A
MAO-B inhibition (Figure 6) (MAO-B [4]; [9]): failed to inhibit
Molecule: OC[C@H]1O[C@@H](Oc2ccc(/C=C/c3cc(O)cc(O)c3)cc2)[C@H](O)[C@@H](O)[C@@H]1O [resveratrol 4'-glucoside]

inhibition of MAO-A activity in screening (MAO-A [3]): only inhibited MAO-A
IC50 (MAO-A [3]): 16.3 ± 1.1 µM
inhibition at 51 µM (MAO-B [4]; 51 µM (GI concentration expected from maximum single dose)): < 10%
Molecule: COc1cc(CCC(C)=O)ccc1O [zingerone]

Molecule: isoeugenol
inhibition of MAO-A activity in screening (MAO-A [3]): significantly inhibited
MAO-A Hill coefficient (MAO-A [3]): 1.2 ± 0.1
Selectivity Index (MAO-A [3]): 27.4
inhibition of MAO-B activity in screening (MAO-B [4]): significantly inhibited
MAO-B Hill coefficient (MAO-B [4]; [11]): 2.4 ± 0.3
